Assay results published in patent US20150307461A1, “ANTIVIRAL COMPOUNDS” (priority 2012, published 2015).

How the values were obtained:
Experiment in all cases: microbe, parasite or virus in culture
[1] = test system: Pseudotyped HCV GT1b particles (HCVpp); type: cell-based, HCV GT1b Con1 strain; settings: Hepatitis C virus, 72 h, read-out: HCVpp GT-1b (EC50, μM)
[2] = test system: pseudotyped VSV G particles (VSVpp); type: cell-based; settings: Vesicular stomatitis virus, 72 h, read-out: VSVpp (EC50, μM)
[3] = test system: Pseudotyped HCV GT1a particles (HCVpp); type: cell-based, HCV GT1a H77 strain; settings: Hepatitis C virus, 72 h, read-out: HCVpp GT-1a (EC50, μM)

Compound	EC50 [1]	EC50 [2]	EC50 [3]
Nc1nc(Nc2cc(F)c(Br)c(Cl)c2)n[nH]1 [Compound I-5, N^3-(4-Bromo-3-chloro-5-fluoro-phenyl)-1H-[1,2,4]triazole-3,5-diamine]	0.536 µM	45.5 µM	
CN(c1cc(Cl)c(Cl)c(Cl)c1)c1n[nH]c(N)n1 [Compound I-27, N*3*-Methyl-N*3*-(3,4,5-trichloro-phenyl)-1H-[1,2,4]triazole-3,5-diamine]		94.4 µM	21.1 µM
CN(c1cc(Cl)cc(Cl)c1)c1n[nH]c(N)n1 [Compound I-28, N*3*-(3,5-Dichloro-phenyl)-N*3*-methyl-1H-[1,2,4]triazole-3,5-diamine]		100 µM	82.8 µM
Nc1nc(N(Cc2ccccc2)c2cc(Cl)cc(Cl)c2)n[nH]1 [Compound I-29, N*3*-Benzyl-N*3*-(3,5-dichloro-phenyl)-1H-[1,2,4]triazole-3,5-diamine]		7.5 µM	6.49 µM
N#CCN(c1cc(Cl)cc(Cl)c1)c1n[nH]c(N)n1 [Compound I-30, [(5-Amino-1H-[1,2,4]triazol-3-yl)-(3,5-dichloro-phenyl)-amino]-acetonitrile]		100 µM	14.5 µM
Nc1nc(Nc2cccc(C(=O)O)c2)n[nH]1 [Compound I-31, 3-(5-Amino-1H-[1,2,4]triazol-3-ylamino)-benzoic acid]		100 µM	100 µM
CS(=O)(=O)Nc1cccc(Nc2n[nH]c(N)n2)c1 [Compound I-33, N-[3-(5-Amino-1H-[1,2,4]triazol-3-ylamino)-phenyl]-methanesulfonamide]		100 µM	100 µM
N#Cc1ccc(Nc2n[nH]c(N)n2)cc1S(=O)(=O)C(F)(F)F [Compound I-34, 4-(5-Amino-1H-[1,2,4]triazol-3-ylamino)-2-trifluoromethanesulfonyl-benzonitrile]		> 1 µM	0.2 µM
Nc1nc(Nc2ccc(Br)c(Cl)c2)n[nH]1 [Compound I-40, N*3*-(4-Bromo-3-chloro-phenyl)-1H-[1,2,4]triazole-3,5-diamine]	3.29 µM	45.7 µM	
Nc1nc(Nc2cc(Cl)c(S(=O)(=O)N3CCOCC3)c(Cl)c2)n[nH]1 [Compound I-44, N3-(3,5-dichloro-4-(morpholinosulfonyl)phenyl)-1H-1,2,4-triazole-3,5-diamine]	0.545 µM	100 µM	
Nc1n[nH]c(Nc2cc(F)c(Br)c(C(F)(F)F)c2)n1 [Compound I-45, N^5-(4-bromo-3-fluoro-5-trifluoromethylphenyl)-1H-[1,2,4]-triazole-3,5-diamine]	0.095 µM	82.5 µM	
Nc1n[nH]c(Nc2cc(F)c(Br)c(F)c2)n1 [Compound I-46, N^5-(4-Bromo-3,5-difluoro-phenyl)-1H-[1,2,4]triazole-3,5-diamine]	1.18 µM	100 µM	
N#Cc1ccc(Nc2n[nH]c(N)n2)cc1 [Compound I-47, 4-(5-Amino-1H-[1,2,4]triazol-3-ylamino)-benzonitrile]		100 µM	19.6 µM
Nc1nc(Nc2cccc(Cl)c2Cl)n[nH]1 [Compound I-49, N^3-(2,3-Dichloro-phenyl)-1H-[1,2,4]triazole-3,5-diamine]		100 µM	100 µM
Nc1nc(Nc2cccc(C(F)(F)F)c2F)n[nH]1 [Compound I-53, N^3-(2-Fluoro-3-trifluoromethyl-phenyl)-1H-[1,2,4]triazole-3,5-diamine]		100 µM	100 µM
Nc1nc(Nc2cccc(CC(F)(F)F)c2)n[nH]1 [Compound I-55, N^3-[3-(2,2,2-Trifluoro-ethyl)-phenyl]-1H-[1,2,4]triazole-3,5-diamine]		100 µM	10.3 µM

Compound	EC50 [1]	EC50 [2]	EC50 [3]
Nc1nc(Nc2cccc(C(=O)c3ccccc3)c2)n[nH]1 [Compound I-58, [3-(5-Amino-1H-[1,2,4]triazol-3-ylamino)-phenyl]-phenyl-methanone]			4.08 µM
N#CC1(c2cccc(Nc3n[nH]c(N)n3)c2)CC1 [Compound I-59, 1-[3-(5-Amino-1H-[1,2,4]triazol-3-ylamino)-phenyl]-cyclopropanecarbonitrile]		100 µM	1.46 µM
Nc1nc(Nc2cc(F)cc(Cl)c2)n[nH]1 [Compound I-61, N^3-(3-Chloro-5-fluoro-phenyl)-1H-[1,2,4]triazole-3,5-diamine]	0.331 µM	> 10 µM	
CNC(=O)Nc1ccc(Nc2n[nH]c(N)n2)cc1Cl [Compound I-62, 1-[4-(5-Amino-1H-[1,2,4]triazol-3-ylamino)-2-chloro-phenyl]-3-methyl-urea]	100 µM	100 µM	
COC(=O)c1c(Cl)cc(Nc2n[nH]c(N)n2)cc1Cl [Compound I-63, 4-(5-Amino-1H-[1,2,4]triazol-3-ylamino)-2,6-dichloro-benzoic acid methyl ester]	1.74 µM	100 µM	
Nc1nc(Nc2cc(Cl)c(C(=O)Nc3ccccc3)c(Cl)c2)n[nH]1 [Compound I-64, 4-(5-Amino-1H-[1,2,4]triazol-3-ylamino)-2,6-dichloro-N-phenyl-benzamide]	4.09 µM	8.6 µM	
Nc1nc(Nc2cc(Cl)c(C(=O)N3CCCC3)c(Cl)c2)n[nH]1 [Compound I-65, [4-(5-Amino-1H-[1,2,4]triazol-3-ylamino)-2,6-dichloro-N-phenyl]-pyrrolidin-1-yl-methanone]	3.67 µM	100 µM	
CS(=O)(=O)c1cccc(NC(=O)c2c(Cl)cc(Nc3n[nH]c(N)n3)cc2Cl)c1 [Compound I-66, 4-(5-Amino-1H-[1,2,4]triazol-3-ylamino)-2,6-dichloro-N-(3-methanesulfonyl-phenyl)-benzamide]	4.99 µM	100 µM	
Cn1nc(N)nc1Nc1cccc(S(F)(F)(F)(F)F)c1 [Compound I-71, 1-Methyl-N*5*-(3-pentafluorosulfur-phenyl)-1H-[1,2,4]triazole-3,5-diamine]		100 µM	100 µM
Nc1nc(Nc2cccc(S(F)(F)(F)(F)F)c2)n(C2CCCCC2)n1 [Compound I-72, Cyclohexyl-N*5*-(3-pentafluorosulfur-phenyl)-1H-[1,2,4]triazole-3,5-diamine]		68.3 µM	36.1 µM
Cn1nc(N)nc1Nc1cc(F)cc(S(F)(F)(F)(F)F)c1 [Compound I-74, N*5*-(3-Fluoro-5-pentafluorosulfur-phenyl)-1-methyl-1H-[1,2,4]triazole-3,5-diamine]		100 µM	34.3 µM
Nc1nc(Nc2ccc(S(F)(F)(F)(F)F)cc2)n[nH]1 [Compound I-75, N*3*-(4-pentafluorosulfur-phenyl)-1H-[1,2,4]triazole-3,5-diamine]		100 µM	14.3 µM
Cc1ccc(Nc2n[nH]c(N)n2)cc1Cl [Compound I-76, N^3-(3-Chloro-4-methyl-phenyl)-1H-[1,2,4]triazole-3,5-diamine]		100 µM	0.791 µM
CN(C)C(=O)c1ccc(Nc2n[nH]c(N)n2)cc1Cl [Compound I-78, 4-(5-Amino-1H-[1,2,4]triazol-3-ylamino)-2-chloro-N,N-dimethyl-benzamide]		100 µM	32.1 µM
Nc1nc(Nc2cc(Cl)c(Cc3nnn[nH]3)c(C(F)(F)F)c2)n[nH]1 [Compound I-90, N3-(4-((1H-tetrazol-5-yl)methyl)-3-chloro-5-(trifluoromethyl)phenyl)-1H-1,2,4-triazole-3,5-diamine]		100 µM	24.4 µM
